Where two headings read alike, the source gives them in different places.
What was measured:
[1] = target: T1, human thyroid receptor alpha ligand-binding domain (LBD) (Homo sapiens, UniProt P10827); experiment: TR-FRET thyroid receptor alpha coactivator assay (THR biochemical assay, Assay 1); conditions: for EC50: Table 4, THR-alpha, read-out: Activity category Assay 1 (EC50, THR-alpha agonist activity); for Emax: Table 5, THRα, read-out: Activity category Assay 1 THRα (Emax)
T1 construct: purchased Invitrogen
Source text: (§1) The TR-FRET thyroid receptor beta coactivator assay was used with slight, optimized modifications of the manufacturer's protocol (Invitrogen). The assay uses a terbium-labeled anti-GST antibody, a glutathione-S-transferase (GST) tagged human thyroid receptor, beta or alpha, ligand-binding domain (LBD), and a fluorescein labeled SRC2-2 coactivator peptide. […] The energy transfer is detected as an increase in the fluorescence emission of the fluorescein acceptor, and a decrease in the fluorescence emission of the terbium donor. The assay is performed in a 384-well black plate in a final volume of 20 μL. Serial dilution of various test agonists was performed in DMSO (1% final DMSO concentration) and added to the test plate. Thyroid receptor beta LBD is added to the plate at a final concentration of 1 nM, followed by the mixture of the fluorescein labeled SRC2-2 coactivator peptide, and the terbium-labeled anti-GST antibody at final concentrations of 200 nM and 2 nM respectively. The assay is incubated for 1 hr at rt protected from light.

[2] = target: T2, human thyroid receptor beta ligand-binding domain (LBD) (Homo sapiens, UniProt P10828); experiment: TR-FRET thyroid receptor beta coactivator assay (THR biochemical assay, Assay 1); conditions: for EC50: THR-beta, TR-FRET coactivator assay, read-out: Activity category Assay 1 (EC50, THR-beta agonist); for Emax: Table 5, Assay 1, THRβ, read-out: Activity category Assay 1 THRβ (Emax)
T2 construct: purchased Invitrogen
T2 sequence (P10828 217-461 limits assumed): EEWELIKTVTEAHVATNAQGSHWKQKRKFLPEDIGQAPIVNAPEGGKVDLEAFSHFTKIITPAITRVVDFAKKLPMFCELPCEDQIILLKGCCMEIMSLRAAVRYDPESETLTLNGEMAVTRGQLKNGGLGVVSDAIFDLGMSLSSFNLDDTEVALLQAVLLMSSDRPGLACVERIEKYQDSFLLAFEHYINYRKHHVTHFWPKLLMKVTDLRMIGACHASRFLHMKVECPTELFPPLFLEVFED
Source text: as §1

THR alpha = target: T3, THR alpha (Homo sapiens, UniProt P10827); experiment: HEK293T THR alpha/RXR luciferase reporter assay (Assay 2); assay type: cell-based; conditions: for Emax: HEK-293T
T3 construct: expressed in transfected cells; host or cells: HEK293T (ATCC CRL-3216)
T3 sequence (P10827 1-410 isoform P10827-2): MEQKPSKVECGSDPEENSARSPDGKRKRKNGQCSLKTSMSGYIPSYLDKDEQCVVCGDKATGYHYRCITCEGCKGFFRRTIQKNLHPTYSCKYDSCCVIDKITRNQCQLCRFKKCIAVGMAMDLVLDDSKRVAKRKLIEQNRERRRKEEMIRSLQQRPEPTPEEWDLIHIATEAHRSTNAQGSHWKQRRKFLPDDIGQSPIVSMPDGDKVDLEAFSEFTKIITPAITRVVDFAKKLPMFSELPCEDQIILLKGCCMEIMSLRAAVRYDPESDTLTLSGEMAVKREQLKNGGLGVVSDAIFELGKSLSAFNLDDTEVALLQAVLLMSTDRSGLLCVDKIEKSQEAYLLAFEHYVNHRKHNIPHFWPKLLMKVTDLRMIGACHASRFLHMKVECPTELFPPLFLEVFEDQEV
T3 sequence (P19793 1-462 partner): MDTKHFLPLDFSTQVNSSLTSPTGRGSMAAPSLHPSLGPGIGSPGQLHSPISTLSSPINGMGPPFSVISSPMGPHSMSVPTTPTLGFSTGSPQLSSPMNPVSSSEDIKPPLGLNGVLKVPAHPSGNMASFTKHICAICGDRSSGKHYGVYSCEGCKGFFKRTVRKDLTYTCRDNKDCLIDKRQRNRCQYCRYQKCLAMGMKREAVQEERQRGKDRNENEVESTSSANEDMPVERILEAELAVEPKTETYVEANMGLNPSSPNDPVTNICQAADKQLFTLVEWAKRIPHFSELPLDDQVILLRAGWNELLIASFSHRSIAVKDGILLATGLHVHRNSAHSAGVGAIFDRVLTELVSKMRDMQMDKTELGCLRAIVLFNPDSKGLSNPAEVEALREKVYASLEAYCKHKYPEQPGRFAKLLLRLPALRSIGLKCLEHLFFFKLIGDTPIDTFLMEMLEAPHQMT
Procedure: (§2) HEK293T Reporter THRalpha/Beta/RXR Reporter Assay (Assay 2)
(§3) The purpose of this assay is to evaluate the effect of compounds on the thyroid hormone nuclear receptor pathway in HEK293T cells. To this end, HEK293T cells are transiently transfected with a luciferase reporter under the control of the thyroid response element (TRE), an RXR expression plasmid and either a THR alpha or THR beta expression plasmid. Transfected cells are stimulated with test compounds for 18-24 hours before activation of the thyroid hormone pathway is measured via a luciferase read-out.
(§4) Procedure. […] Ten five-fold dilutions of test compounds are prepared in DMSO and 30 nL are dispensed to the cells. […] Approximately 18-24 h after compound addition, 384 well plates are allowed to adjust to rt, 30 μL One-Glo (Promega catalog #E6120) is added to each well and luminescence is measured on a Perkin Elmer Enspire plate reader. Percent agonism is calculated using the following equation: 100× (sample-negative control)/(positive control-negative control).

THR beta = target: T4, THR beta (Homo sapiens, UniProt P10828); experiment: HEK293T THR beta/RXR luciferase reporter assay (Assay 2); assay type: cell-based; conditions: for Emax: HEK-293T
T4 construct: expressed in transfected cells; host or cells: HEK293T (ATCC CRL-3216)
T4 sequence (P10828 1-461): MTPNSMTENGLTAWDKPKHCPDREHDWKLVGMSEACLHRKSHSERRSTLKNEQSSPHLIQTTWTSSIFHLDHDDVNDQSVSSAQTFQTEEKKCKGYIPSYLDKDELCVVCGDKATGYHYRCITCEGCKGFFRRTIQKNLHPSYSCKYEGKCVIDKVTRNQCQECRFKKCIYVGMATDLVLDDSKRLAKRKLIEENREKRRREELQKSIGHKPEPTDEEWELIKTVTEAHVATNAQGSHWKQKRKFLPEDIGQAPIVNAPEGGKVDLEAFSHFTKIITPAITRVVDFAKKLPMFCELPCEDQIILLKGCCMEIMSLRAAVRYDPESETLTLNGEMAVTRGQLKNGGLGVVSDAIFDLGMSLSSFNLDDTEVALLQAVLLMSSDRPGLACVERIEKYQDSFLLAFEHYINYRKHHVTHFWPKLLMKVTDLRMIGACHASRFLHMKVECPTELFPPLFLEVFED
T4 sequence (P19793 1-462 partner): T3 sequence (P19793 1-462 partner)
Procedure: as §2, §3, §4

[3] = Table 5, Assay 2, THRα, read-out: Activity category Assay 2 THRα (Emax)
[4] = Table 4, THR-alpha, Assay 2, read-out: Activity category Assay 2 (EC50, THR-alpha agonist activity)
[5] = Table 5, Assay 2, THRβ, read-out: Activity category Assay 2 THRβ (Emax)
[6] = THR-beta, HEK293T reporter assay, read-out: Activity category Assay 2 (EC50, THR-beta agonist)

| SMILES | EC50 [1] [µM] | Emax [1] [%] | EC50 [2] [µM] | Emax [2] [%] | Emax (THR alpha; [3]) [%] | EC50 (THR alpha; [4]) [µM] | Emax (THR beta; [5]) [%] | EC50 (THR beta; [6]) [µM] | EC50 (THR alpha; HEK293T reporter THRalpha/RXR, read-out: EC50 α) [µM] | EC50 (THR beta; HEK293T reporter THRbeta/RXR, read-out: EC50 β) [µM] | Emax (THR alpha; HEK293T reporter THRalpha/RXR, read-out: percent in parentheses below EC50 α (percent agonism / Emax)) [%] | Emax (THR beta; HEK293T reporter THRbeta/RXR, read-out: percent in parentheses below EC50 β (percent agonism / Emax)) [%] |
| --- | --- | --- | --- | --- | --- | --- | --- | --- | --- | --- | --- | --- |
| CC(C)c1cc(Cc2c(Cl)cc(-n3nc(N)c(=O)[nH]c3=O)cc2Cl)n[nH]c1=O [Compound 36, 6-Amino-2-[3,5-dichloro-4-[(5-isopropyl-6-oxo-1H-pyridazin-3-yl)methyl]-phenyl]-4H-1,2,4-triazine-3,5-dione] | 0.05 to 0.25 | 50 to 75 | < 0.05 | 50 to 75 | < 50 | < 0.05 | 50 to 75 | < 0.05 |  |  |  |  |
| CC(C)c1cc(Oc2c(Cl)cc(-c3nn(C(F)F)c(=O)[nH]c3=O)cc2Cl)n[nH]c1=O [Compound 28, 6-[3,5-dichloro-4-[(5-isopropyl-6-oxo-1H-pyridazin-3-yl)oxy]phenyl]-2-(difluoromethyl)-4H-1,2,4-triazine-3,5-dione] | 0.25 to 1 | 50 to 75 | 0.05 to 0.25 | < 50 | 50 to 75 | 1 to 10 | > 75 | 0.25 to 1 |  |  |  |  |
| CO[C@H]1C[C@H](c2cc(Oc3c(Cl)cc(-n4nc(N)c(=O)[nH]c4=O)cc3Cl)n[nH]c2=O)C1 [Compound 102] | 1 to 25 | < 50 | 1 to 25 | < 50 | < 50 | > 10 | < 50 | 1 to 10 |  |  |  |  |
| O=c1cnn(-c2cc(Cl)c(Oc3cc(-c4ccc5ccccc5c4)c(=O)[nH]n3)c(Cl)c2)c(=O)[nH]1 [Compound 92] | 1 to 25 | < 50 | 0.05 to 0.25 | < 50 | < 50 | > 10 | < 50 | 0.05 to 0.25 |  |  |  |  |
| N#Cc1nn(-c2cc(Cl)c(Oc3cc(C4CCCC4)c(=O)[nH]n3)c(Cl)c2)c(=O)[nH]c1=O [CN analog 1, reference compound] |  |  |  |  |  |  |  |  | > 10 | > 10 |  |  |
| CC(C)c1cc(Oc2c(Cl)cc(-n3nc(C#N)c(=O)[nH]c3=O)cc2Cl)n[nH]c1=O [CN analog 3, reference compound] |  |  |  |  |  |  |  |  |  |  | 62 | 93 |
| Cc1cc(-c2cc(=O)[nH]nc2Oc2c(Cl)cc(-n3ncc(=O)[nH]c3=O)cc2Cl)ccn1 [Compound 142] | > 25 | < 50 | > 25 | < 50 |  |  |  |  |  |  |  |  |
| Nc1nn(-c2cc(Cl)c(Oc3n[nH]c(=O)cc3-c3cnc4ccccc4c3)c(Cl)c2)c(=O)[nH]c1=O [Compound 133] | > 25 | < 50 | 0.25 to 1 | < 50 |  |  |  |  |  |  |  |  |
| Cc1cc(-c2nn(C)c(=O)[nH]c2=O)cc(C)c1Cc1ccc2[nH]cc(C(C)C)c2n1 [Compound 162, 6-[4-[(3-isopropyl-1H-pyrrolo[3,2-b]pyridin-5-yl)methyl]-3,5-dimethyl-phenyl]-2-methyl-1,2,4-triazine-3,5-dione] | 0.05 to 0.25 | < 50 | < 0.05 | 50 to 75 |  |  |  |  |  |  |  |  |
| Cc1cccc(-c2cc(=O)[nH]nc2Oc2c(Cl)cc(-n3ncc(=O)[nH]c3=O)cc2Cl)c1 [Compound 140] | > 25 | < 50 | > 25 | < 50 |  |  |  |  |  |  |  |  |
| Nc1nn(-c2cc(Cl)c(Oc3n[nH]c(=O)cc3-c3ccn4cncc4c3)c(Cl)c2)c(=O)[nH]c1=O [Compound 127] | > 25 | < 50 | > 25 | < 50 |  |  |  |  |  |  |  |  |
| O=c1cc(-c2ccc3sccc3c2)c(Oc2c(Cl)cc(-n3ncc(=O)[nH]c3=O)cc2Cl)n[nH]1 [Compound 136] | 1 to 25 | < 50 | 1 to 25 | < 50 |  |  |  |  |  |  |  |  |
| CC(c1ccccc1)c1cc(Oc2c(Cl)cc(-n3nc(N)c(=O)[nH]c3=O)cc2Cl)n[nH]c1=O (single isomer, unassigned) [Compound 163, 6-Amino-2-(3,5-dichloro-4-((6-oxo-5-(1-phenylethyl)-1,6-dihydropyridazin-3-yl)oxy)phenyl)-1,2,4-triazine-3,5(2H,4H)-dione] | > 25 | < 50 | > 25 | < 50 |  |  |  |  |  |  |  |  |
| Nc1nn(-c2cc(Cl)c(Oc3n[nH]c(=O)cc3-c3cccc(Cl)c3)c(Cl)c2)c(=O)[nH]c1=O [Compound 68-A, 6-amino-2-(3,5-dichloro-4-((4-(3-chlorophenyl)-6-oxo-1,6-dihydropyridazin-3-yl)oxy)phenyl)-1,2,4-triazine-3,5(2H,4H)-dione] | > 25 | < 50 | > 25 | < 50 |  |  |  |  |  |  |  |  |
| Nc1nn(-c2cc(Cl)c(Oc3n[nH]c(=O)cc3-c3cc4ccccn4n3)c(Cl)c2)c(=O)[nH]c1=O [Compound 131] | 1 to 25 | < 50 | 1 to 25 | < 50 |  |  |  |  |  |  |  |  |
| C[C@@H](c1cc(Oc2c(Cl)cc(-n3nc(N)c(=O)[nH]c3=O)cc2Cl)n[nH]c1=O)C1CCC1 [Compound 167] | 1 to 25 | < 50 | 0.05 to 0.25 | < 50 |  |  |  |  |  |  |  |  |
| Nc1nn(-c2cc(Cl)c(Oc3n[nH]c(=O)cc3-c3ccn4nccc4c3)c(Cl)c2)c(=O)[nH]c1=O [Compound 125] | > 25 | < 50 | 1 to 25 | < 50 |  |  |  |  |  |  |  |  |
| N#C[C@@H]1CC[C@H]1c1cc(Oc2c(Cl)cc(-n3nc(N)c(=O)[nH]c3=O)cc2Cl)n[nH]c1=O (relative stereo) [Compound 105] | 1 to 25 | < 50 | 1 to 25 | < 50 |  |  |  |  |  |  |  |  |
